Assay results published in PMC8495968, “Towards optimizing peptide-based inhibitors of protein–protein interactions: predictive saturation variation scanning (PreSaVS)” (RSC Chemical Biology, 2021).
Where “and” joins values, the source holds several entries; their conditions need not be identical. Identical values can stand only once.

What was measured:
[1] = target: T1, MCL-1 (Homo sapiens, UniProt Q07820); assay: Isothermal calorimetry (ITC) of peptide binding to MCL-1; details: 50 mM Tris, 150 mM NaCl, pH 7.5, 150 μM peptide; for Kd: 25°C, one-binding site model
T1 construct: 172-327 was expressed; His-SUMO (N, cleaved yes); made in house
Experimental: Peptide variants were prepared as N-terminal acetamides and C-terminal amides (see ESI ^†). […] Lastly, structural effects of these variations were investigated using circular dichroism (CD) spectroscopy (Fig. S4, ESI ^†).
(b) ITC data (50 mM Tris, 150 mM NaCl, pH 7.5, 150 μM peptide). […]
ITC experiments were carried out using a Microcal ITC200i instrument (Malvern) at 25°C in […]
[…] The protein of interest was dialysed against the buffer prior to experiment, and lyophilized peptides were dissolved in the same buffer. Protein was present in the cell and titrated with peptide solutions loaded into the syringe using 20 x 2 uL injections with 120 s spacing between the injections. Heats of peptide dilution were subtracted from each measurement raw data. Data was analysed using Microcal Origin 8 and

[2] = target: T2, hSUMO-1 18-97 (Homo sapiens, UniProt P63165); assay: Fluorescence anisotropy competition assay, FITC-peg-SIM tracer / SUMO; assay type: binding; details: for inhibitory potency in competition FA: competition FA vs SIM tracer/SUMO, relative to SIM2705–2717; for IC50: competition FA, 50 mM Tris, 150 mM NaCl, 25 nM tracer, 100 nM SUMO, read after 45 min, triplicate
T2 construct: 18-97; His-TEV (N, cleaved yes); made in house
Experimental: hSUMO-1 18-97 was expressed and purified as previously described from a pet19b His-TEV-SUMO-1 (18-97) construct with cleavage of the tag using TEV protease.4 […]
(§1) Fluorescence anisotropy assays were performed in 384-well plates (Greiner Bio-one). Each experiment was run in triplicate and the fluorescence anisotropy measured using a Perkin Elmer EnVisionTM 2103 MultiLabel plate reader, with excitation at 480 nm (30 nm bandwidth), polarised dichroic mirror at 505 nm and emission at 535 nm (40 nm bandwidth, S and P polarised). All assays were performed in 20 mM Tris, 100 mM NaCl, 0.1 mM DTT, pH 7.5 unless otherwise stated and data analysed following previously published methods.
(§2) Fluorescence anisotropy data was processed as described previously.[2] Briefly. the data from both the P (perpendicular intensity) and S (parallel intensity) channels, resulting from this measurement and corrected by subtracting the corresponding control wells, were used to calculate the intensity and anisotropy for each well following Equations 1 and 2: […]
(§3) For direct titration the average anisotropy (across three experimental replicates) and the standard deviation of these values were then calculated and fit to a logistic model using OriginPro 9.0 to determine the maximum and minimum anisotropies then the fraction bound calculated (Equation 3) and used to determine Kd (equation 4)
(§4) Lb= (r‒rmin)/λ(rmax‒r)+r‒rmin Equation 3
(§5) y= {(k+ x+[ FL])‒√{k+x+[FL] 2‒4x[FL]}}/2 Equation 4 r = anisotropy, I = total intensity, P = perpendicular intensity, S = parallel intensity, G = instrument factor which was set to 1 for all experiments, Lb = fraction ligand bound, λ = […]
(§6) For competition experiments, the anisotropies were determined as for the direct titration and then plotted against inhibitor concentration and fit (equation 5) to determine the IC50 and error […]
(§7) y = rmax + (rmin-rmax)/(1+(x/xo)p) Equation 5
(§8) Where xo represents the IC50 […]
(§9) Competition binding assays:
(§10) FA competition assays were performed in 384 well plates with the concentration of variant […]
(§11) with fixed protein and tracer concentrations. FITC-labelled peptide was added to each well to […]
(§12) For control wells, the tracer peptide was replaced with an identical volume of assay buffer.
(§13) The total volume in each well was 60 μL. […]

[3] = target: T3, hMCL-1 172-327 (Homo sapiens, UniProt Q07820); assay: Fluorescence anisotropy competition assay, FITC-Ahx-BIM75–85 tracer / MCL-1; assay type: binding; details: for inhibitory activity in competition FA: competition FA vs FITC-Ahx-BIM75–85/MCL-1, relative to NOXA75–93
T3 construct: 172-327 was expressed; His-SUMO (N, cleaved yes); made in house
Experimental: as §1, §2, §3, §4, §5, §6, §7, §8, §9, §10, §11, §12, §13

[4] = test system: α-chymotrypsin; assay: Proteolysis by α-chymotrypsin; assay type: in vitro ADME, bovine; details: 45 μM peptide, 0.25 μg/ml α-chymotrypsin, 25 °C, 50 mM Tris-HCl pH 8.0, 150 mM NaCl, 10 mM CaCl2; LC-MS EIC of full-length peptide; triplicate
Text: An advantage of PreSaVS lies in the ability to identify tolerated variants – in terms of target binding affinity – with more desirable physicochemical properties (Table S3 for calculated physicochemical properties, ESI ^†). […] This may arise from subtle changes in protease recognition specificity, although given proteases recognise substrates in an extended, β-like conformation as is the case for the SIM2705–2717/SUMO interaction, secondary structure propensity may also play a role.
Figure S7. Proteolysis data for (a) NOXA75-93 (45 μM peptide in the presence of 0.25 μg/ml α-chymotrypsin at 25 °C) and (b) SIM2705-2717 (40 μM peptide in the presence of 0.75 μg/mL Proteinase K at 25 °C). Data points show the mean ± standard deviation over triplicate measurements. Insets show t1/2 values.
as §8
diluted over 16-24 points using 2-fold dilutions. […]
of assay buffer. Plates were read after 45 minutes. […]
The total volume in each well was 60 μL. Plates were read after 45 minutes of incubation at […]
uL injections with 120 s spacing between the injections. […] Data was analysed using Microcal Origin 8 and fitted to a one-binding site model […]
Peptide solubility was assessed using a qualitative test.
= 5690 M-1cm-1), concentrations were determined based on the absorbance at 280 nm. For NOXA variants, concentrations were determined based on absorbance at 205 nm (ε 205 = […]

T2 sequence (P63165 18-97): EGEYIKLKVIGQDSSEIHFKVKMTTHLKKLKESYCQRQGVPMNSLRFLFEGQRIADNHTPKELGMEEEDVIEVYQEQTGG
T1 sequence (Q07820 172-327): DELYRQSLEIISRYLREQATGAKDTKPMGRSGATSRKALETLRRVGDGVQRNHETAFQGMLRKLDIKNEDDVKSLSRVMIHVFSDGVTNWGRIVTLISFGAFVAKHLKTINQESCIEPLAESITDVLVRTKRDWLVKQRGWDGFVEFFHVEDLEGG
T3 sequence (Q07820 172-327): as above

Row | Compound | ΔG [1] | ΔH [1] | IC50 [2] | Kd [1] | IC50 [3] | inhibitory activity in competition FA [3] | other results
1 | CC[C@H](C)[C@H](NC(=O)[C@H](CCCNC(=N)N)NC(=O)[C@H](CCCNC(=N)N)NC(=O)[C@H](CC(C)C)NC(=O)[C@H](CCC(N)=O)NC(=O)[C@H](C)NC(=O)[C@H](C)NC(C)=O)C(=O)NCC(=O)N[C@@H](CC(=O)O)C(=O)N[C@@H](CCCCN)C(=O)N[C@H](C(=O)N[C@@H](CC(N)=O)C(=O)N[C@@H](CC(C)C)C(=O)N[C@@H](CCCNC(=N)N)C(=O)N[C@@H](CCC(N)=O)C(=O)N[C@@H](CCCCN)C(=O)N[C@@H](CC(C)C)C(=O)N[C@@H](CC(C)C)C(=O)N[C@@H](CC(N)=O)C(N)=O)C(C)C [NOXA75–93] | -2.08 kcal/mol | -4.59 ± 0.359 kcal/mol | – | – | – | – | –
2 | CC[C@H](C)[C@H](NC(=O)[C@H](CCC(=O)O)NC(=O)[C@H](CC(N)=O)NC(=O)[C@H](CC(=O)O)NC(C)=O)C(=O)N[C@@H](CCC(=O)O)C(=O)N[C@H](C(=O)N[C@@H](CCC(=O)O)C(=O)N[C@H](C(=O)N[C@H](C(=O)N[C@@H](Cc1c[nH]c2ccccc12)C(=O)N[C@@H](CCC(=O)O)C(=O)N[C@@H](CCCCN)C(=O)N[C@@H](CCCCN)C(N)=O)C(C)C)[C@@H](C)CC)C(C)C [SIM2705–2717I2711E] | – | – | > 200000 nM | – | – | – | inhibitory potency in competition FA [2]: lost inhibitory potency
3 | CC[C@H](C)[C@H](NC(=O)[C@H](CCC(=O)O)NC(=O)[C@H](CC(N)=O)NC(=O)[C@H](CC(=O)O)NC(C)=O)C(=O)N[C@@H](CCC(=O)O)C(=O)N[C@H](C(=O)N[C@H](C(=O)N[C@H](C(=O)N[C@H](C(=O)N[C@@H](Cc1c[nH]c2ccccc12)C(=O)N[C@@H](CCC(=O)O)C(=O)N[C@@H](CCCCN)C(=O)N[C@@H](CCCCN)C(N)=O)C(C)C)[C@@H](C)CC)[C@@H](C)CC)[C@@H](C)CC [SIM2705–2717V2710I] | – | – | 16200 nM and 16100 nM | – | – | – | –
4 | CC[C@H](C)[C@H](NC(=O)[C@H](CCC(=O)O)NC(=O)[C@H](CC(N)=O)NC(=O)[C@H](CC(=O)O)NC(C)=O)C(=O)N[C@@H](CCC(=O)O)C(=O)N[C@H](C(=O)N[C@H](C(=O)N[C@H](C(=O)N[C@@H](CCC(=O)O)C(=O)N[C@@H](Cc1c[nH]c2ccccc12)C(=O)N[C@@H](CCC(=O)O)C(=O)N[C@@H](CCCCN)C(=O)N[C@@H](CCCCN)C(N)=O)[C@@H](C)CC)[C@@H](C)CC)C(C)C [SIM2705–2717V2713E] | – | – | > 200000 nM | – | – | – | inhibitory potency in competition FA [2]: lost inhibitory potency
5 | Ac-AAQFRRIGDKVNLRQKLLN-NH2 [NOXA75–93L78F] | – | – | – | 1700 ± 100 nM | 2700 ± 100 nM | – | increased rate of cleavage by α-chymotrypsin relative to NOXA75–93 [4]: ≈ 10 fold
6 | Ac-AAQLRRIGDKFNLRQKLLN-NH2 [NOXA75–93V85F] | -2 kcal/mol | -3.66 ± 0.813 kcal/mol | – | 800 ± 100 nM | > 20000 nM | weaker inhibitory activity | −TΔS [1]: 1.65 kcal/mol
7 | Ac-AAQWRRIGDKVNLRQKLLN-NH2 [NOXA75–93L78W] | -1.83 kcal/mol | -3.13 ± 0.932 kcal/mol | – | 2400 ± 800 nM | 2200 ± 100 nM | tolerated | −TΔS [1]: 1.31 kcal/mol
8 | Ac-AAQYRRIGDKVNLRQKLLN-NH2 [NOXA75–93L78Y] | – | – | – | – | > 100000 nM | poor inhibitor | increased rate of cleavage by α-chymotrypsin relative to NOXA75–93 [4]: ≈ 10 fold
